According to patent US8912220B2 (priority 2009, dated 2014):

Molecular target: human 5-HT2C(VSV) (Homo sapiens, UniProt P28335, I156V/I160V/N158S)
Assay: cell-based

human 5-HT2C(VSV), sequence (P28335 33-458 I156V/N158S/I160V limits assumed): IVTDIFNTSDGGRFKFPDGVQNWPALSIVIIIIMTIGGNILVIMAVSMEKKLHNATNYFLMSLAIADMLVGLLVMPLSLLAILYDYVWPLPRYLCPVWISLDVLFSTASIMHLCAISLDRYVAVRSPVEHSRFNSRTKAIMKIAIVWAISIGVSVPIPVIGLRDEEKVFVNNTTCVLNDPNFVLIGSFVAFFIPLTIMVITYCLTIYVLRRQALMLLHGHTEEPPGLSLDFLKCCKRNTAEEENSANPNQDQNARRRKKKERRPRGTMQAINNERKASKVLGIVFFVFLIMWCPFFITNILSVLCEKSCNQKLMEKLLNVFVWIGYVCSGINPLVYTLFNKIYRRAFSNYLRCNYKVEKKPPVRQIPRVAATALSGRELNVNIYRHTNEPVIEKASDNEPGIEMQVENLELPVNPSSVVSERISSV

Row | SMILES | EC50
1 | CCn1cc(CCN2C[C@@H]3C[C@H]2CN3Cc2ccccc2)c2c(O)cc(F)cc21 [31-7, 3-(2-((1S,4S)-5-benzyl-2,5-diazabicyclo[2.2.1]heptan-2-yl)ethyl)-1-ethyl-6-fluoro-1H-indol-4-ol] | 0.5 to 10 µM
2 | CCn1cc(CCN(C)C)c2c(OCc3ccsc3)cc(F)cc21 [1-19b, 2-(1-ethyl-6-fluoro-4-(thiophen-3-ylmethoxy)-1H-indol-3-yl)-N,N-dimethylethanamine] | 0.001 to 0.5 µM
3 | COc1c(F)ccc2c1c(CCNC(C)c1ccccc1)cn2C (stereo not drawn) [34-10, 2-(5-fluoro-4-methoxy-1-methyl-1H-indol-3-yl)-N-(1-phenylethyl)ethanamine] | 0.001 to 0.5 µM
4 | CN(C)CCc1cn(Cc2ccccc2)c2c(F)ccc(OCc3ccccc3)c12 [7-2, 2-(1-benzyl-4-(benzyloxy)-7-fluoro-1H-indol-3-yl)-N,N-dimethylethanamine] | 0.5 to 10 µM
5 | Cn1cc(CCNCc2ccccc2)c2c(O)c(F)ccc21 [33-47, 3-(2-(benzylamino)ethyl)-5-fluoro-1-methyl-1H-indol-4-ol] | 0.001 to 0.5 µM
6 | CCn1cc(CCN(C)C)c2c(Oc3ccccc3[N+](=O)[O-])ccc(F)c21 [2-2, 2-(1-ethyl-7-fluoro-4-(2-nitrophenoxy)-1H-indol-3-yl)-N,N-dimethylethanamine] | 0.5 to 10 µM
7 | COc1ccc(F)c2c1c(CCN1CCCC1)cn2C [11-10, 7-fluoro-4-methoxy-1-methyl-3-(2-(pyrrolidin-1-yl)ethyl)-1H-indole] | 0.001 to 0.5 µM
8 | CNCCc1cn(C)c2cc(F)cc(OCc3ccc(Cl)cc3)c12 [33-45, 2-(4-(4-chlorobenzyloxy)-6-fluoro-1-methyl-1H-indol-3-yl)-N-methylethanamine] | 0.001 to 0.5 µM
9 | CCn1cc(CCN2CCC(F)(F)C2)c2c(O)cc(F)cc21 [11-14, 3-(2-(3,3-difluoropyrrolidin-1-yl)ethyl)-1-ethyl-6-fluoro-1H-indol-4-ol] | 0.5 to 10 µM
10 | CCn1cc(CCNCc2cccc(C(F)(F)F)c2)c2c(OCc3ccccc3)cc(F)cc21 [31-8, 2-(4-(benzyloxy)-1-ethyl-6-fluoro-1H-indol-3-yl)-N-(3-(trifluoromethyl)benzyl)ethanamine] | 0.5 to 10 µM
11 | CCn1cc(CCNCCc2ccccc2)c2c(OCc3ccccc3)cc(F)cc21 [26-9, 2-(4-(benzyloxy)-1-ethyl-6-fluoro-1H-indol-3-yl)-N-phenethylethanamine] | 0.5 to 10 µM
12 | CNCCc1cn(C)c2ccc(F)c(OCc3cccc4cccnc34)c12 [33-13, 2-(5-fluoro-1-methyl-4-(quinolin-8-ylmethoxy)-1H-indol-3-yl)-N-methylethanamine] | 0.001 to 0.5 µM
13 | CCOc1c(F)ccc2c1c(CCNCCc1ccccn1)cn2C [30-27, 2-(4-ethoxy-5-fluoro-1-methyl-1H-indol-3-yl)-N-(2-(pyridin-2-yl)ethyl)ethanamine] | 0.001 to 0.5 µM
14 | CNCCc1cn(C)c2ccc(F)c(OCc3ccc(S(C)(=O)=O)cc3)c12 [33-38, 2-(5-fluoro-1-methyl-4-(4-(methylsulfonyl)benzyloxy)-1H-indol-3-yl)-N-methylethanamine] | 0.001 to 0.5 µM
15 | CCn1cc(CCN2Cc3ccccc3C2)c2c(O)cc(F)cc21 [31-4, 1-ethyl-6-fluoro-3-(2-(isoindolin-2-yl)ethyl)-1H-indol-4-ol] | 0.5 to 10 µM
16 | CCOc1c(F)ccc2c1c(CCN1CCCC1CO)cn2C (stereo not drawn) [30-24, (1-(2-(4-ethoxy-5-fluoro-1-methyl-1H-indol-3-yl)ethyl)pyrrolidin-2-yl)methanol] | 0.5 to 10 µM
17 | NCCc1cn(CC(N)=O)c2ccc(F)c(O)c12 [19-7, 2-(3-(2-aminoethyl)-5-fluoro-4-hydroxy-1H-indol-1-yl)acetamide] | < 10 µM
18 | CCn1cc(CCNCc2cccc(C(F)(F)F)c2)c2c(O)cc(F)cc21 [31-12, 1-ethyl-6-fluoro-3-(2-(3-(trifluoromethyl)benzylamino)ethyl)-1H-indol-4-ol] | 0.001 to 0.5 µM
19 | CNCCc1cn(C)c2ccc(F)c(OCc3ccc(C)cc3)c12 [33-27, 2-(5-fluoro-1-methyl-4-(4-methylbenzyloxy)-1H-indol-3-yl)-N-methylethanamine] | 0.001 to 0.5 µM
20 | CCn1cc(CCNCc2cccc(Cl)c2)c2c(OCc3ccccc3)cc(F)cc21 [31-9, 2-(4-(benzyloxy)-1-ethyl-6-fluoro-1H-indol-3-yl)-N-(3-chlorobenzyl)ethanamine] | 0.5 to 10 µM
21 | CCOc1c(F)ccc2c1c(CCNCc1cccs1)cn2C [30-28, 2-(4-ethoxy-5-fluoro-1-methyl-1H-indol-3-yl)-N-(thiophen-2-ylmethyl)ethanamine] | 0.001 to 0.5 µM
22 | CNCCc1cn(C)c2ccc(F)c(OCc3ccccc3C(F)(F)F)c12 [33-31, 2-(5-fluoro-1-methyl-4-(2-(trifluoromethyl)benzyloxy)-1H-indol-3-yl)-N-methylethanamine] | 0.001 to 0.5 µM
23 | CNCCc1cn(C)c2ccc(F)c(OCc3cccc(Cl)c3)c12 [33-8, 2-(4-(3-chlorobenzyloxy)-5-fluoro-1-methyl-1H-indol-3-yl)-N-methylethanamine] | 0.001 to 0.5 µM
24 | CCn1cc(CCN2Cc3ccccc3C2)c2c(OCc3ccccc3)cc(F)cc21 [31-3, 4-(benzyloxy)-1-ethyl-6-fluoro-3-(2-(isoindolin-2-yl)ethyl)-1H-indole] | 0.5 to 10 µM

Row | SMILES | EC50
25 | CCn1cc(CCNCc2ccccc2C)c2c(OC)ccc(F)c21 [20-9, 2-(1-ethyl-7-fluoro-4-methoxy-1H-indol-3-yl)-N-(2-methylbenzyl)ethanamine] | 0.001 to 0.5 µM
26 | CCn1cc(CCN2CCNCC2)c2c(O)cc(F)cc21 [11-15, 1-ethyl-6-fluoro-3-(2-(piperazin-1-yl)ethyl)-1H-indol-4-ol] | 0.5 to 10 µM
27 | CCn1cc(CCN(C)C)c2c(OC)c(CCCN)cc(F)c21 [28-4, 3-(3-(2-(dimethylamino)ethyl)-1-ethyl-7-fluoro-4-methoxy-1H-indol-5-yl)propan-1-amine] | 0.001 to 0.5 µM
28 | NCCc1cn(CC2CCCCO2)c2ccc(F)c(O)c12 (stereo not drawn) [19-3, 3-(2-Aminoethyl)-5-fluoro-1-((tetrahydro-2H-pyran-2-yl)methyl)-1H-indol-4-ol] | 0.001 to 0.5 µM
29 | CCn1cc(CCN(C)CCc2cn(CC)c3cc(F)cc(OC)c23)c2c(OC)cc(F)cc21 [39-5, 2-(1-ethyl-6-fluoro-4-methoxy-1H-indol-3-yl)-N-(2-(1-ethyl-6-fluoro-4-methoxy-1H-indol-3-yl)ethyl)-N-methylethanamine] | 0.001 to 0.5 µM
30 | CNCCc1cn(C)c2ccc(F)c(OCCc3ccc(Cl)cc3)c12 [33-29, 2-(4-(4-chlorophenethoxy)-5-fluoro-1-methyl-1H-indol-3-yl)-N-methylethanamine] | 0.001 to 0.5 µM
31 | CNCCc1cn(C)c2ccc(F)c(OCc3ccc(Cl)cc3)c12 [33-20, 2-(4-(4-chlorobenzyloxy)-5-fluoro-1-methyl-1H-indol-3-yl)-N-methylethanamine] | 0.001 to 0.5 µM
32 | COc1c(F)ccc2c1c(CCN1CCc3ccc(Cl)cc3C(C)C1)cn2C (stereo not drawn) [17-8, 8-chloro-3-(2-(5-fluoro-4-methoxy-1-methyl-1H-indol-3-yl)ethyl)-1-methyl-2,3,4,5-tetrahydro-1H-benzo[d]azepine] | 0.001 to 0.5 µM
33 | CCn1cc(CCN(C)C)c2c(OCc3ccc(C(F)(F)F)cc3)cc(F)cc21 [1-12b, 2-(1-ethyl-6-fluoro-4-(4-(trifluoromethyl)benzyloxy)-1H-indol-3-yl)-N,N-dimethylethanamine] | 0.5 to 10 µM
34 | CCCn1cc(CCN)c2c3c(ccc21)OCCO3 [40-6, 2-(7-propyl-3,7-dihydro-2H-[1,4]dioxino[2,3-e]indol-9-yl)ethanamine] | < 10 µM
35 | CCn1cc(CCNCc2ccccc2)c2c(OC)ccc(F)c21 [20-4, N-benzyl-2-(1-ethyl-7-fluoro-4-methoxy-1H-indol-3-yl)ethanamine] | 0.001 to 0.5 µM
36 | COc1ccc(CNCCc2cn(C)c3ccc(F)c(OC)c23)cc1OC [34-8, N-(3,4-dimethoxybenzyl)-2-(5-fluoro-4-methoxy-1-methyl-1H-indol-3-yl)ethanamine] | 0.001 to 0.5 µM
37 | CCn1cc(CCNCc2ccccc2)c2c(OC)cc(F)cc21 [39-4, N-benzyl-2-(1-ethyl-6-fluoro-4-methoxy-1H-indol-3-yl)ethanamine] | 0.001 to 0.5 µM
38 | CNCCc1cn(C)c2ccc(F)c(OC(C)c3ccccc3)c12 (stereo not drawn) [33-32, 2-(5-fluoro-1-methyl-4-(1-phenylethoxy)-1H-indol-3-yl)-N-methylethanamine] | 0.001 to 0.5 µM
39 | CCOc1c(F)ccc2c1c(CCN1CCCC1)cn2C [30-29, 4-ethoxy-5-fluoro-1-methyl-3-(2-(pyrrolidin-1-yl)ethyl)-1H-indole] | 0.001 to 0.5 µM
40 | CCOc1c(F)ccc2c1c(CCNCc1cccc(C(F)(F)F)c1)cn2C [30-22, 2-(4-ethoxy-5-fluoro-1-methyl-1H-indol-3-yl)-N-(3-(trifluoromethyl)benzyl)ethanamine] | 0.001 to 0.5 µM
41 | CCOc1c(F)ccc2c1c(CCNCc1ccccc1C(F)(F)F)cn2C [30-21, 2-(4-ethoxy-5-fluoro-1-methyl-1H-indol-3-yl)-N-(2-(trifluoromethyl)benzyl)ethanamine] | 0.001 to 0.5 µM
42 | CN(C)CCc1cn(Cc2ccc3ccccc3c2)c2c(F)ccc(OCc3ccccc3)c12 [7-6, 2-(4-(benzyloxy)-7-fluoro-1-(naphthalen-2-ylmethyl)-1H-indol-3-yl)-N,N-dimethylethanamine] | 0.001 to 0.5 µM
43 | CCn1cc(CCNCC(C)c2ccccc2)c2c(O)cc(F)cc21 (stereo not drawn) [39-6, 1-ethyl-6-fluoro-3-(2-(2-phenylpropylamino)ethyl)-1H-indol-4-ol] | 0.001 to 0.5 µM
44 | CCn1cc(CCNC(C)c2ccccc2)c2c(OC)ccc(F)c21 (stereo not drawn) [20-8, 2-(1-ethyl-7-fluoro-4-methoxy-1H-indol-3-yl)-N-(1-phenylethyl)ethanamine] | 0.001 to 0.5 µM
45 | CN(C)CCc1cn(C)c2ccc(F)c(OCCc3ccccc3)c12 [18-2, 2-(5-fluoro-1-methyl-4-phenethoxy-1H-indol-3-yl)-N,N-dimethylethanamine] | 0.001 to 0.5 µM
46 | COc1c(F)ccc2c1c(CCN1CCN(c3cccc(Cl)c3)CC1)cn2C [17-15, 3-(2-(4-(3-chlorophenyl)piperazin-1-yl)ethyl)-5-fluoro-4-methoxy-1-methyl-1H-indole] | 0.001 to 0.5 µM
47 | CCn1cc(CCN2CCOCC2)c2c(O)cc(F)cc21 [11-5, 1-ethyl-6-fluoro-3-(2-morpholinoethyl)-1H-indol-4-ol] | 0.001 to 0.5 µM
48 | CCn1cc(CCN(C)C)c2c(OCc3ccncc3)cc(F)cc21 [1-18b, 2-(1-ethyl-6-fluoro-4-(pyridin-4-ylmethoxy)-1H-indol-3-yl)-N,N-dimethylethanamine] | 0.5 to 10 µM
